Like-named read-outs stand apart in the source and are kept apart here.
Biological target: human NaV 1.8 (Homo sapiens, UniProt Q9Y5Y9)
Assay: E-VIPR assay detecting and measuring NaV inhibition properties
Assay type: cell-based
Conditions: HEK cells expressing truncated human NaV 1.8
Summary of the method: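 Membrane potential was followed by coumarin/oxonol FRET during electrical field stimulation of matrigel-seeded HEK cells carrying truncated human NaV1.8 plus KIR2.1. Dosing used 11 points, 3-fold steps, top 300 nM final, 0.625% DMSO, with or without 25% human serum.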

[1] = no human serum, read-out: IC50 in the E-VIPR Assay
[2] = in the presence of human serum (compound numbers followed by *), read-out: IC50 in the E-VIPR Assay, performed in the presence of human serum

human NaV 1.8, sequence (Q9Y5Y9 126-399 limits assumed): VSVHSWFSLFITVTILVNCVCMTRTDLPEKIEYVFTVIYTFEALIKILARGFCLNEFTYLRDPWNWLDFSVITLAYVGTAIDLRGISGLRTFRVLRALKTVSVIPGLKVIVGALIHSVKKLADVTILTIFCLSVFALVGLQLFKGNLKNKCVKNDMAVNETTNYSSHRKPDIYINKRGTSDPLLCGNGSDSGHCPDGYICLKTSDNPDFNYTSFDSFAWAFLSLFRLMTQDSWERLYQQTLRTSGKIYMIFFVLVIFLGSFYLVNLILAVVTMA
human NaV 1.8, sequence (Q9Y5Y9 660-890 limits assumed): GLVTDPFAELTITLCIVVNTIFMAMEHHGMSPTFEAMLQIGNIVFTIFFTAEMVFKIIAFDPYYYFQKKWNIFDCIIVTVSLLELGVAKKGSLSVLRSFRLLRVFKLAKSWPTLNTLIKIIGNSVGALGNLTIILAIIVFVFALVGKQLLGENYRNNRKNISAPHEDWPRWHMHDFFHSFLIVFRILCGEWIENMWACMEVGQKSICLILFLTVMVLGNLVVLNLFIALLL
human NaV 1.8, sequence (Q9Y5Y9 1148-1722 limits assumed): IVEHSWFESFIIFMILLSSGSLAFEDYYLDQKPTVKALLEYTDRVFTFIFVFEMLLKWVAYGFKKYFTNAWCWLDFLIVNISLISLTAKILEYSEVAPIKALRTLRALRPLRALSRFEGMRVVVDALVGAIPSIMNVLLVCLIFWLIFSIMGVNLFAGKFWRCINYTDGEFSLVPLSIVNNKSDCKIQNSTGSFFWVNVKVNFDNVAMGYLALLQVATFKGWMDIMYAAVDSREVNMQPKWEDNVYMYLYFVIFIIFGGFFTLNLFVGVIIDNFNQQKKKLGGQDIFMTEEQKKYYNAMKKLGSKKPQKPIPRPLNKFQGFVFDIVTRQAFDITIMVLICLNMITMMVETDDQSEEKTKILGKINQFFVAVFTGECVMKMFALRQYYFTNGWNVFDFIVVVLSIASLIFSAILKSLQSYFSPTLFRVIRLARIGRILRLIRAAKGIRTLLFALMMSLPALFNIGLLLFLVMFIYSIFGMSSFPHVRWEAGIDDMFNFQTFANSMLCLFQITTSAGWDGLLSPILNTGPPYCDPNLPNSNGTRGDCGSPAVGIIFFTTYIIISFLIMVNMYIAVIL

SMILES | IC50 [1] [nM] | IC50 [2] [nM]
C[C@H]1[C@@H](c2ccc(F)c(F)c2OC(F)F)[C@H](C(=O)Nc2cc(S(C)(=O)=O)ccn2)O[C@@]1(C)C(F)(F)F (single isomer, unassigned) [Compound 72] | 10 to 100 | 
Cc1nn(C(F)F)cc1NC(=O)[C@@H]1O[C@@](C)(C(F)(F)F)[C@@H](C)[C@H]1c1ccc(F)c(F)c1CCc1cn[nH]c1 [Compound 681, (2R,3S,4S,5R)-3-(2-(2-(1H-pyrazol-4-yl)ethyl)-3,4-difluorophenyl)-N-(1-(difluoromethyl)-3-methyl-1H-pyrazol-4-yl)-4,5-dimethyl-5-(trifluoromethyl)tetrahydrofuran-2-carboxamide] | 10 to 100 | 
COc1c([C@@H]2C[C@](C)(C(F)(F)F)O[C@H]2C(=O)Nc2ccnc([C@H](O)[C@@H](C)O)c2)ccc(F)c1F (stereo in doubt) [Compound 699, rel-(2R,3S,5R)-3-(3,4-difluoro-2-methoxyphenyl)-N-(2-((1S,2R)-1,2-dihydroxypropyl)pyridin-4-yl)-5-methyl-5-(trifluoromethyl)tetrahydrofuran-2-carboxamide] |  | 10 to 100
COc1c(C2CC(C)(C(F)(F)F)OC2C(=O)Nc2ccnc(C(O)C(C)O)c2)ccc(F)c1F (single isomer, unassigned) [Compound 695] |  | ≥ 1000
COc1c([C@H]2[C@H](C(=O)Nc3cc(C(O)CN4CCOCC4)ncc3F)O[C@@](C)(C(F)(F)F)[C@H]2C)ccc(F)c1F (single isomer, unassigned) [Compound 371, rel-(2R*,3S*,4S*,5R*)-3-(3,4-difluoro-2-methoxyphenyl)-N-(5-fluoro-2-(1-hydroxy-2-morpholinoethyl)pyridin-4-yl)-4,5-dimethyl-5-(trifluoromethyl)tetrahydrofuran-2-carboxamide] | 10 to 100 | 
COc1c([C@H]2[C@H](C(=O)Nc3ccnc(C4(N)COC4)c3)O[C@@](C)(C(F)(F)F)[C@H]2C)ccc(F)c1F [Compound 340, (2R,3S,4S,5R)-N-(2-(3-aminooxetan-3-yl)pyridin-4-yl)-3-(3,4-difluoro-2-methoxyphenyl)-4,5-dimethyl-5-(trifluoromethyl)-tetrahydrofuran-2-carboxamide] | < 10 | 
COc1c([C@H]2[C@H](C(=O)Nc3ccc(C#CCO)nc3)O[C@@](C)(C(F)(F)F)[C@H]2C)ccc(F)c1F [Compound 403, (2R,3S,4S,5R)-3-(3,4-difluoro-2-methoxyphenyl)-N-(6-(3-hydroxyprop-1-yn-1-yl)pyridin-3-yl)-4,5-dimethyl-5-(trifluoromethyl)-tetrahydrofuran-2-carboxamide] | 10 to 100 | 
COc1c([C@@H]2[C@@H](C(=O)Nc3ccnc([S+](C)[O-])c3)O[C@](C)(C(F)(F)F)[C@@H]2C)ccc(F)c1F (single isomer, unassigned) [Compound 6] |  | ≥ 1000
COc1c([C@H]2[C@H](C(=O)Nc3ccnc(S(C)(=N)=O)c3)O[C@@](C)(C(F)(F)F)[C@H]2C)ccc(F)c1C (relative stereo) [Compound 151, rel-(2R,3S,4S,5R)-3-(4-fluoro-2-methoxy-3-methylphenyl)-4,5-dimethyl-N-(2-(S-methylsulfonimidoyl)pyridin-4-yl)-5-(trifluoromethyl)tetrahydrofuran-2-carboxamide] | < 10 | 
COC(=O)COc1c([C@H]2[C@H](C(=O)Nc3cn(C(F)F)nc3C)O[C@@](C)(C(F)(F)F)[C@H]2C)ccc(F)c1F [Compound 602, methyl 2-[6-[(2R,3S,4S,5R)-2-[[1-(difluoromethyl)-3-methyl-pyrazol-4-yl]carbamoyl]-4,5-dimethyl-5-(trifluoromethyl)tetrahydrofuran-3-yl]-2,3-difluoro-phenoxy]acetate] | < 10 | 
COc1c([C@H]2[C@H](C(=O)Nc3ccnc(C(O)CO)c3)OC(C)(C)[C@H]2C)ccc(F)c1F (relative stereo) [Compound 721, rel-(2R,3S,4S)-3-(3,4-difluoro-2-methoxyphenyl)-N-(2-(1,2-dihydroxyethyl)pyridin-4-yl)-4,5,5-trimethyltetrahydrofuran-2-carboxamide] |  | 100 to 1000

Reference: patent US20240368135A1 (VERTEX PHARMACEUTICALS INCORPORATED, priority 2021, published 2024)
